Measurements reported in patent US10785975B2, “Water and feed antimicrobial preservative” (priority 2009, dated 2020).
Where two headings read alike, the source gives them in different places.

Experiments:
Salmonella typhimurium [1] = assay: Example 2: effect of carbon chain length of individual organic acids on antimicrobial activity in water; format: cell-based; set-up: MIC at 4 HR / MIC at 24 FIR: unit not given here; conditions: for MIC at 4 HR / MIC at 24 FIR: Minimum Inhibitory Concentration of Organic Acids against Salmonella, by linear regression; for MIC at 24 FIR: 24 hours; for killing at […] / killing at 0.05 % / killing at 0.075 % / killing at 0.1 %: Salmonella enterica, TYPHIMURIUM
Experimental: 100 ul of a nutrient broth culture of Salmonella typhimurium was added to each dilution tube. After addition, tubes were vortexed and allowed to stand. At 4 and 24 hours after addition of the inoculum, 100 ul of the solution was plated on agar (triplicate plates). Plates were incubated at 37° C. for 24 hours prior to enumeration. The minimum effective dose of each acid was be determined by linear regression: […]

Salmonella typhimurium [2] = assay: Example 3: buffered organic acid mixtures with pelargonic acid in water; format: cell-based; conditions: for MIC at 4 HR / MIC at 24 HR: Minimum Inhibitory Concentration of Pelargonic when mixed with acetic or propionic acid (buffered to pH 3), by linear regression
Experimental: Procedure: Propionic and acetic acids were buffered with ammonium hydroxide to a pH of 3 and combined with pelargonic in the ratios above. Acid content of the buffered solutions was determined by weight to weight ratio calculation (weight of acid/total weight of buffered solution) and adjusted to provide an equal acid value for each treatment. […] The pHs of the deionized water solutions were recorded and any problems with solubility noted.
100 ul of a nutrient broth culture of Salmonella typhimurium was added to each dilution tube. After addition, tubes were vortexed and allowed to stand. At 4 and 24 hours after addition of the inoculum, 100 ul of the solution was plated on Standard Plate agar (triplicate plates). Plates were incubated at 37° C. for 24 hours prior to enumeration. The minimum effective dose of each acid was determined by linear regression.

Salmonella typhimurium [3] = assay: Study 5: propionic, acetic and pelargonic acids alone or in combination in water; format: cell-based
Experimental: Propionic, acetic and pelargonic acids by themselves or in combination as listed were added to sterile deionized water to make at a 0.05%, 0.04%, 0.03%, 0.02% and 0.01% total acid solutions. The pHs of the deionized water solutions were recorded and any problems with solubility noted. 100 ul of a nutrient broth culture of Salmonella typhimurium was added to each dilution tube. After addition, tubes were vortexed and allowed to stand. At 24 hours after addition of the inoculum, 100 ul of the solution was plated on Standard Plate agar (triplicate plates). Plates were incubated at 37° C. for 24 hours prior to enumeration.

Salmonella typhimurium [4] = assay: Study 6: capric acid in acetic or propionic acid against salmonella in poultry feed; format: cell-based; conditions: Capric/Propionic acids, 24 hours after treatment
Experimental: (§1) Commercial poultry feed amended with Salmonella typhimurium was treated with 1 or 3 kg/MT of the solutions listed below. Twenty four hours after treatment, 10 gr of feed was added to 90 ml Butterfield buffer, mixed and then 100 ul of the solution was plated on Standard Plate agar (triplicate plates). Plates were incubated at 37° C. for 24 hours prior to enumeration.

Salmonella typhimurium [5] = assay: Study 7: myristic acid in propionic acid against salmonella in poultry feed; format: cell-based; conditions: Myristic/Propionic acids, 24 hours after treatment
Experimental: (§2) Myristic acid (5%, 10% and 20%) diluted in propionic acid was tested to determine its effectiveness against salmonella in feed.
as §1

Salmonella typhimurium [6] = assay: Study 8: lauric acid in propionic acid against salmonella in poultry feed; format: cell-based; conditions: Lauric/Propionic acids, 24 hours after treatment
Experimental: Lauric acid (5%, 10%, 20%) diluted with propionic acid was tested to determine its effectiveness against salmonella in feed.
[…] Twenty four hours after treatment, 10 gr of feed was added to 90 ml Butterfield buffer, mixed and then 100 ul of the solution was plated on Standard Plate agar (triplicate plates). Plates were incubated at 37° C. for 24 hours prior to enumeration.

[7] = Experimental: Pelargonic acid is a naturally occurring fatty acid found in almost all species of animals and plants. Because it contains nine carbon atoms, it is also called nonanoic acid has the chemical formula CH3(CH2)7COOH. It is found at low levels in many common foods and is readily broken down in the environment. It is an oily colorless fluid that solidifies at lower temperatures.
In this experiment, the effect of free fatty acids was evaluated. […] The pH of the deionized water solutions was recorded and any problems with solubility noted
as §2

M. gypseum = conditions: acids tested independently, cited from earlier work
C. irritans = conditions: cited from earlier work
[8] = general description in background; cited from earlier work
[9] = Test Product 0.01 % total acid solution in water
[10] = Test Product 0.02 % total acid solution in water
[11] = Test Product 0.04 % total acid solution in water
[12] = Test Product 0.05 % total acid solution in water
[13] = Product Conc. 0.025 (% total acid solution in water)
[14] = Product Conc. 0.05 (% total acid solution in water)
[15] = Product Conc. 0.075 (% total acid solution in water)
[16] = Product Conc. 0.1 (% total acid solution in water)

Question: For `CCC(=O)O` [Propionic acid], which “MIC at 4 HR” value (Salmonella typhimurium [1]; 4 hr) is on record?
Answer: 0166

Question: What about the “MIC at 24 FIR” value (Salmonella typhimurium [1]) of the same compound?
Answer: 0.066

Question: What about the “Salmonella at time Interval 4 hr cfu/g” value (Salmonella typhimurium [1]; Product Conc. 0.025 (% acid solution in water), 4 hr) of the same compound?
Answer: 1167 cfu/g

Question: What about the “Salmonella at time Interval 24 hr cfu/g” value (Salmonella typhimurium [1]; Product Conc. 0.025 (% acid solution in water), 24 hr) of the same compound?
Answer: 170 cfu/g

Question: What about the “Salmonella at time Interval 4 hr cfu/g” value (Salmonella typhimurium [1]; Product Conc. 0.05 (% acid solution in water), 4 hr) of the same compound?
Answer: 900 cfu/g

Question: And the “Salmonella at time Interval 24 hr cfu/g” value (Salmonella typhimurium [1]; Product Conc. 0.05 (% acid solution in water), 24 hr)?
Answer: 40 cfu/g

Question: And the “Salmonella at time Interval 4 hr cfu/g” value (Salmonella typhimurium [1]; Product Conc. 0.075 (% acid solution in water), 4 hr)?
Answer: 877 cfu/g

Question: And the “Salmonella at time Interval 24 hr cfu/g” value (Salmonella typhimurium [1]; Product Conc. 0.075 (% acid solution in water), 24 hr)?
Answer: 25 cfu/g

Question: What about the “Salmonella at time Interval 4 hr cfu/g” value (Salmonella typhimurium [1]; Product Conc. 0.1 (% acid solution in water), 4 hr) of the same compound?
Answer: 773 cfu/g

Question: What about the “Salmonella at time Interval 24 hr cfu/g” value (Salmonella typhimurium [1]; Product Conc. 0.1 (% acid solution in water), 24 hr) of the same compound?
Answer: 30 cfu/g

Question: And the killing at […] (Salmonella typhimurium [1]; Product Conc. 0.025 (% acid solution in water), 4 hr, read-out: Salmonella at time Interval 4 hr % reduction)?
Answer: 27%

Question: What about the killing at […] (Salmonella typhimurium [1]; Product Conc. 0.025 (% acid solution in water), 24 hr, read-out: Salmonella at time Interval 24 hr % reduction) of the same compound?
Answer: 90%

Question: What about the killing at 0.05 % (Salmonella typhimurium [1]; Product Conc. 0.05 (% acid solution in water), 4 hr, read-out: Salmonella at time Interval 4 hr % reduction) of the same compound?
Answer: 44%

Question: And the killing at 0.05 % (Salmonella typhimurium [1]; Product Conc. 0.05 (% acid solution in water), 24 hr, read-out: Salmonella at time Interval 24 hr % reduction)?
Answer: 98%

Question: And the killing at 0.075 % (Salmonella typhimurium [1]; Product Conc. 0.075 (% acid solution in water), 4 hr, read-out: Salmonella at time Interval 4 hr % reduction)?
Answer: 45%

Question: And the killing at 0.075 % (Salmonella typhimurium [1]; Product Conc. 0.075 (% acid solution in water), 24 hr, read-out: Salmonella at time Interval 24 hr % reduction)?
Answer: 99%

Question: What about the killing at 0.1 % (Salmonella typhimurium [1]; Product Conc. 0.1 (% acid solution in water), 4 hr, read-out: Salmonella at time Interval 4 hr % reduction) of the same compound?
Answer: 52%

Question: And the killing at 0.1 % (Salmonella typhimurium [1]; Product Conc. 0.1 (% acid solution in water), 24 hr, read-out: Salmonella at time Interval 24 hr % reduction)?
Answer: 98%

Question: And the “MIC at 4 HR” value (Salmonella typhimurium [2])?
Answer: 0.179

Question: And the “MIC at 24 HR” value (Salmonella typhimurium [2])?
Answer: 0.064

Question: What about the “Salmonella 24 hr afterTreatment (cfu/g)” value (Salmonella typhimurium [3]; [9]) of the same compound?
Answer: 1200 cfu/g

Question: And the “Salmonella 24 hr afterTreatment (cfu/g)” value (Salmonella typhimurium [3]; [10])?
Answer: 870 cfu/g

Question: What about the “Salmonella 24 hr afterTreatment (cfu/g)” value (Salmonella typhimurium [3]; Test Product 0.03 % total acid solution in water) of the same compound?
Answer: 810 cfu/g

Question: And the “Salmonella 24 hr afterTreatment (cfu/g)” value (Salmonella typhimurium [3]; [11])?
Answer: 910 cfu/g

Question: And the “Salmonella 24 hr afterTreatment (cfu/g)” value (Salmonella typhimurium [3]; [12])?
Answer: 560 cfu/g

Question: What about the “% Reduction” value (Salmonella typhimurium [4]; 1 kg/ton) of the same compound?
Answer: 0%

Question: And the cfu/g (Salmonella typhimurium [4]; 1 kg/ton)?
Answer: 4633 cfu/g

Question: And the “% Reduction” value (Salmonella typhimurium [4]; 3 kg/ton)?
Answer: 0%

Question: And the cfu/g (Salmonella typhimurium [4]; 3 kg/ton)?
Answer: 5633 cfu/g

Question: What about the “% Reduction” value (Salmonella typhimurium [5]; 1 kg/MT) of the same compound?
Answer: 90.08%

Question: What about the cfu/g (Salmonella typhimurium [5]; 1 kg/MT) of the same compound?
Answer: 3967 cfu/g

Question: And the “% Reduction” value (Salmonella typhimurium [5]; 3 kg/MT)?
Answer: 99.42%

Question: What about the cfu/g (Salmonella typhimurium [5]; 3 kg/MT) of the same compound?
Answer: 233 cfu/g

Question: What about the “% Reduction” value (Salmonella typhimurium [6]; 1 kg/MT) of the same compound?
Answer: 92.3%

Question: What about the cfu/g (Salmonella typhimurium [6]; 1 kg/MT) of the same compound?
Answer: 2567 cfu/g

Question: And the “% Reduction” value (Salmonella typhimurium [6]; 3 kg/MT)?
Answer: 100.0%

Question: And the cfu/g (Salmonella typhimurium [6]; 3 kg/MT)?
Answer: 0 cfu/g

Question: For `CCCCCCCCCCCC(=O)O` [lauric, Lauric acid], which solubility in water [7] is on record?
Answer: not soluble in water

Question: For `CCCCCCCCC(=O)O` [Pelargonic acid], which “MIC at 4 HR” value (Salmonella typhimurium [1]; 4 hr) is on record?
Answer: 0.063

Question: And the “MIC at 24 FIR” value (Salmonella typhimurium [1])?
Answer: <0.025

Question: What about the “MIC at 4 HR” value (Salmonella typhimurium [2]) of the same compound?
Answer: <0.025

Question: And the “MIC at 24 HR” value (Salmonella typhimurium [2])?
Answer: <0.025

Question: What about the “Salmonella at time Interval 4 hr % reduction” value (Salmonella typhimurium [2]; [13]) of the same compound?
Answer: 100%

Question: What about the “Salmonella at time Interval 4 hr cfu/g” value (Salmonella typhimurium [2]; [13]) of the same compound?
Answer: 0 cfu/g

Question: What about the “Salmonella at time Interval 24 hr % reduction” value (Salmonella typhimurium [2]; [13]) of the same compound?
Answer: 100%

Question: What about the “Salmonella at time Interval 24 hr cfu/g” value (Salmonella typhimurium [2]; [13]) of the same compound?
Answer: 0 cfu/g

Question: What about the “Salmonella at time Interval 4 hr % reduction” value (Salmonella typhimurium [2]; [14]) of the same compound?
Answer: 100%

Question: What about the “Salmonella at time Interval 4 hr cfu/g” value (Salmonella typhimurium [2]; [14]) of the same compound?
Answer: 0 cfu/g

Question: And the “Salmonella at time Interval 24 hr % reduction” value (Salmonella typhimurium [2]; [14])?
Answer: 100%

Question: And the “Salmonella at time Interval 24 hr cfu/g” value (Salmonella typhimurium [2]; [14])?
Answer: 0 cfu/g

Question: And the “Salmonella at time Interval 4 hr % reduction” value (Salmonella typhimurium [2]; [15])?
Answer: 100%

Question: And the “Salmonella at time Interval 4 hr cfu/g” value (Salmonella typhimurium [2]; [15])?
Answer: 0 cfu/g

Question: And the “Salmonella at time Interval 24 hr % reduction” value (Salmonella typhimurium [2]; [15])?
Answer: 100%

Question: And the “Salmonella at time Interval 24 hr cfu/g” value (Salmonella typhimurium [2]; [15])?
Answer: 0 cfu/g

Question: And the “Salmonella at time Interval 4 hr % reduction” value (Salmonella typhimurium [2]; [16])?
Answer: 100%

Question: What about the “Salmonella at time Interval 4 hr cfu/g” value (Salmonella typhimurium [2]; [16]) of the same compound?
Answer: 0 cfu/g

Question: And the “Salmonella at time Interval 24 hr % reduction” value (Salmonella typhimurium [2]; [16])?
Answer: 100%

Question: And the “Salmonella at time Interval 24 hr cfu/g” value (Salmonella typhimurium [2]; [16])?
Answer: 0 cfu/g

Question: What about the “Salmonella 24 hr afterTreatment (cfu/g)” value (Salmonella typhimurium [3]; [9]) of the same compound?
Answer: 1400 cfu/g

Question: And the “Salmonella 24 hr afterTreatment (cfu/g)” value (Salmonella typhimurium [3]; [10])?
Answer: 1300 cfu/g

Question: What about the “Salmonella 24 hr afterTreatment (cfu/g)” value (Salmonella typhimurium [3]; [11]) of the same compound?
Answer: 1500 cfu/g

Question: What about the “Salmonella 24 hr afterTreatment (cfu/g)” value (Salmonella typhimurium [3]; [12]) of the same compound?
Answer: 850 cfu/g

Question: What about the solubility in water [7] of the same compound?
Answer: not soluble in water

Question: What about the “minimum inhibitory concentration (MTC) to prevent growth of M. gypseum” value (M. gypseum; in liquid media) of the same compound?
Answer: 50 µg/mL

Question: And the “minimum inhibitory concentration (MTC) to prevent growth of M. gypseum” value (M. gypseum; on solid media)?
Answer: 40 µg/mL

Question: And the “controlling the growth of the parasite C. irritans” value (C. irritans)?
Answer: effective in controlling the growth

Question: And the solubility in water [8]?
Answer: almost insoluble in water
